Reference: patent US20120071431A1, “Platycodin Radix Extracts, and Their Use in Treating Disease Conditions Associated with Angiogenesis” (priority 2010, published 2012)
“Also recorded” adds a separate entry of the source.

Experiments:
[1] = tested on: angiogenesis in human fat tissue; assay: human fat tissue angiogenesis assay (substance added to the media); format: cell-based
Protocol: The above extracts of platycodin, both PS and PD, were assayed for antiangiogenic activity using the human fat angiogenesis assay of Greenway et al. (2007).
Study 1: An aqueous extract of Platycodi radix saponins at 1% w/v was tested in our human adipose tissue assay. Briefly, subcutaneous adipose tissue was removed from patients undergoing cosmetic surgical procedures. The fat was placed directly into sterile assay media, transported directly to the laboratory from the surgery suite in the sterile container and processed under a laminar flow hood. The tissue was cut into fragments approximately 1 mm thick and 2 mm in diameter. These fragments were placed in 96-well plates containing a 4 μL human thrombin solution (0.05 IU in 4 μL per well) and covered with 100 μL clotting media (3 mg/mL fibrinogen; Sigma Chemical Co., St Louis, Mo., USA), 0.5% ε-amino caproic acid (Sigma Chemical Co.) in angiogenesis media containing 100 U/mL penicillin, 100 U/mL streptomycin sulfate and 2.5 μg/mL amphotericin β in Medium 199 (Gibco BRL, Gaithersburg, Md., USA). The mixture was allowed to clot by incubation in 6% CO2 at 37° C. in a humidified incubator. After the media had gelled overnight, the fat-containing clot was supplemented with 100 μL angiogenesis media containing 20% fetal bovine serum (Gibco BRL). The total volume of each well was 200 μL. There were 30 replicates for the 1% w/v Platycodi radix saponins and the media control. The angiogenesis media were replaced every 48 h and appropriate concentrations of fresh Platycodi radix saponins or media control were added. Wells were evaluated for the angiogenic response as described by Greenway et al. (2007). An observer unbiased to the treatment protocols evaluated the angiogenic response using a semi-quantitative visual rating scale. Briefly, the tissue was viewed under an inverted microscope, visually divided into four quadrants and each quadrant was given a numeric score from 0 to 4 based on the neovessels' length, density, and percentage of the quadrants' circumference involved with the angiogenic response. Numeric results from the four quadrants were summed and expressed as an angiogenic index ranging from 0 (no neovessels apparent in any quadrant) to 16 (highly vascularized in all four quadrants). The extract of Platycodi radix saponins at 1% w/v was tested, followed by Platycodin D, and finally by the Platycodi radix saponins standardized to the Platycodin D content.

pancreatic lipase = biological target: T1, pancreatic lipase (Homo sapiens, UniProt P16233); settings: cited from earlier work
T1 sequence (P16233 17-465): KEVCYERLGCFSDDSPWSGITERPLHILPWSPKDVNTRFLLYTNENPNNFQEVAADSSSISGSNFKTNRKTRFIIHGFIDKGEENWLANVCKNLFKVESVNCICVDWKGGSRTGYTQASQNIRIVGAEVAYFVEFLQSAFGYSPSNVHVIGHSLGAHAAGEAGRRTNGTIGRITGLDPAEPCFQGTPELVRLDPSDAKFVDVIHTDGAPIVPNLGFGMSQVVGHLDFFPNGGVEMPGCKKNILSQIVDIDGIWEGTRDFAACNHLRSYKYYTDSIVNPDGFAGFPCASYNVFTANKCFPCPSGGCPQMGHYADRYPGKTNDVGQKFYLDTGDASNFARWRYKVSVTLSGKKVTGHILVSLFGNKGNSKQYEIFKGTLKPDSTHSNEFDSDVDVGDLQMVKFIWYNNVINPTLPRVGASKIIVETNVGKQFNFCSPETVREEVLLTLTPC

## C[C@@H]1O[C@@H](O[C@H]2[C@H](OC(=O)[C@]34CCC(C)(C)C[C@H]3C3=CC[C@@H]5[C@@]6(C)C[C@H](O)[C@H](O[C@@H]7O[C@H](CO)[C@@H](O)[C@H](O)[C@H]7O)C(CO)(CO)[C@@H]6CC[C@@]5(C)[C@]3(C)C[C@H]4O)OC[C@H](O)[C@@H]2O)[C@H](O)[C@H](O)[C@H]1O[C@@H]1OC[C@@H](O)[C@H](O[C@@H]2OC[C@](O)(CO)[C@H]2O)[C@H]1O [PD, platycodin D]
[1]; 10^-4 M (concentration of platycodin D) and higher
  inhibition of angiogenesis (angiogenic index): complete inhibition of angiogenesis
[1]; 10^-5 M, difference not statistically significant
  inhibition of angiogenesis: partial inhibition
[1]; concentration not given
  inhibition of angiogenesis: inhibited angiogenesis; also recorded: inhibitors of angiogenesis
[1]; concentrations above 10^-4 M
  inhibition of angiogenesis: totally inhibited angiogenesis
[1]; concentrations below 10^-4 M
  inhibition of angiogenesis: did not inhibit angiogenesis
Pancreatic lipase
  inhibition of pancreatic lipase: inhibit pancreatic lipase
